Assay results published in patent publication US7439071B2, “Method of employing elevation of marinobufagenin in determining the presence of preeclampsia and related apparatus” (The Administrators of the Tulane Educational Fund, priority 2003, dated 2008).

Test system: vessels from preeclamptic rats / normal pregnant rats
Experiment: Perfusion of individual vessels dissected from rat models of preeclampsia and from normal pregnant rats with marinobufagenin
Source text: It is elevated substantially more in preeclamptic rats.

## C[C@]12CC[C@H](O)C[C@@]1(O)CC[C@@H]1[C@@H]2CC[C@]2(C)[C@@H](c3ccc(=O)oc3)C[C@H]3O[C@]132 [marinobufagenin]
Vessels from normal pregnant animals or rats perfused with marinobufagenin
  constriction of perfused vessels: do not constrict
Vessels from preeclamptic rats perfused with marinobufagenin
  constriction of perfused vessels as compared with the controlled circumstance (average): about 36%
